Measurements as given in doi:10.1101/2024.10.10.617599v1 (biorxiv, 2024).
Counter-ions that a name gives are not always drawn.

Experiments:
hP2Y12R = hP2Y12R (Homo sapiens, UniProt Q9H244); experiment: radioligand displacement of [3H]AZ12464237; type: binding
rP2Y12R [1] = target: T1, rP2Y12R (Rattus norvegicus, UniProt Q9EPX4); experiment: radioligand saturation binding, HEK […] membranes
rP2Y12R [2] = target: T1, rP2Y12R; experiment: radioligand displacement of [3H]AZ12464237; type: binding

Sequence of hP2Y12R (Q9H244 whole entry): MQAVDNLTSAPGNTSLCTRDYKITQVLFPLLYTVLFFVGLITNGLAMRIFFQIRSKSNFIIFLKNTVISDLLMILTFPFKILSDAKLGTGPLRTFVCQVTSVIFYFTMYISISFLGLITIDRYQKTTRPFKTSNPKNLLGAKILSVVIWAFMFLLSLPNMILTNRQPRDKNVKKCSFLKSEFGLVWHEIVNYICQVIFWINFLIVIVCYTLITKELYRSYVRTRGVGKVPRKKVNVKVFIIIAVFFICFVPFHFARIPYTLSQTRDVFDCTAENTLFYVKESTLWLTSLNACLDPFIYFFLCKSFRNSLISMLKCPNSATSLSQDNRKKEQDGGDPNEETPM
T1 sequence (Q9EPX4 whole entry): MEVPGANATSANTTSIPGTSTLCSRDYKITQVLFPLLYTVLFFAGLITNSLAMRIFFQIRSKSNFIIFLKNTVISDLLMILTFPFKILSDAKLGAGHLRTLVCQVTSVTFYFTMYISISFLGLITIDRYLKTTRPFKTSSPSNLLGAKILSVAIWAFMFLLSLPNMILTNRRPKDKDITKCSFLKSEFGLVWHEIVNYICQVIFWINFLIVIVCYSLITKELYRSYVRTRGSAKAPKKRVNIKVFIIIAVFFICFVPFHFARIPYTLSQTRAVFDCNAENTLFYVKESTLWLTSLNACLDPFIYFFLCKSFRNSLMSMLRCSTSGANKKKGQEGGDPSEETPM

| Ki (hP2Y12R) | Kd (rP2Y12R [1]) | Ki (rP2Y12R [2]) | SMILES |
| --- | --- | --- | --- |
| 18.9 ± 2.61 nM | – | – | CSc1nc(N)c2ncn([C@@H]3O[C@H](COP(=O)(O)OP(=O)(O)O)[C@@H](O)[C@H]3O)c2n1 [2MeSADP, 2-methylthio-adenosine-5’-diphosphate] |
| – | 16.6 ± 3.37 nM | – | CCOC(=O)c1cc(C#N)c(N2CC(NC(=O)NS(=O)(=O)c3ccc(Cl)s3)C2)nc1C [AZ12464237, Ethyl 6-(3-(3-((5-chlorothiophen-2-yl)sulfonyl)ureido)azetidin-1-yl)-5-cyano-2-methylnicotinate] |
| 2.66 ± 0.6 nM | – | – | CCOC(=O)c1cc(C#N)c(N2CCC(C(=O)NS(=O)(=O)Cc3ccccc3)CC2)nc1C [AZD1283, Ethyl 5-cyano-2-methyl-6-[4-[[[(phenylmethyl)sulfonyl]amino]carbonyl]-1-piperidinyl]-3-pyridinecarboxylate] |
| 3240 ± 1850 nM | – | – | Cc1nc(N=Nc2cc([N+](=O)[O-])ccc2Cl)c(COP(=O)(O)O)c(C=O)c1O [MRS2211, 2-[(2-chloro-5-nitrophenyl)azo]-5-hydroxy-6-methyl-3-[(phosphonooxy)methyl]-4-pyridinecarboxaldehyde disodium salt] |
| > 10000 nM | – | – | O=C(O)c1cc(-c2ccc(C3CCNCC3)cc2)c2ccc(-c3ccc(C(F)(F)F)cc3)cc2c1 [PPTN·HCl, 4-[4-(4-piperidinyl)phenyl]-7-[4-(trifluoromethyl)phenyl]-2-naphthalenecarboxylic acid hydrochloride] |
| 25.6 ± 3.05 nM | – | – | Nc1c(S(=O)(=O)O)cc(Nc2ccc(Nc3ccccc3)c(S(=O)(=O)O)c2)c2c1C(=O)c1ccccc1C2=O [PSB0739] |
| 7 ± 0.54 nM | – | 55 ± 14.3 nM | CNc1cc2[nH]c(=O)n(-c3ccc(NC(=O)NS(=O)(=O)c4ccc(Cl)s4)cc3)c(=O)c2cc1F [elinogrel, 5-chloro-N-[[[4-[6-Fluoro-1,4-dihydro-7-(methylamino)-2,4-dioxo-3(2H)-quinazolinyl]phenyl]amino]carbonyl]-2-thiophenesulfonamide] |
| 20.1 ± 0.25 nM | – | 48.8 ± 15.2 nM | CCCSc1nc(N[C@@H]2C[C@H]2c2ccc(F)c(F)c2)c2nnn([C@@H]3C[C@H](OCCO)[C@@H](O)[C@H]3O)c2n1 [ticagrelor] |

| SMILES | Ki (hP2Y12R) | Kd (rP2Y12R [1]) | Ki (rP2Y12R [2]) |
| --- | --- | --- | --- |
| S=C=Nc1cccc(NC(=S)NCCCCNC(=S)Nc2cccc(N=C=S)c2)c1 [MRS2578] | > 100000 nM | – | – |
